Measurements: patent publication US20230414826A1, “FIBRIN HYDROGELS” (Mayo Foundation for Medical Education and Research, priority 2020, published 2023)

Target: T1, fibrin gels (40 mg/mL fibrinogen, 33 U/mL thrombin) (Homo sapiens, UniProt P02671+P02675+P02679)
T1 construct: purchased Ethicon (Evicel)
T1 sequence (P02671 20-644 isoform P02671-2 limits assumed): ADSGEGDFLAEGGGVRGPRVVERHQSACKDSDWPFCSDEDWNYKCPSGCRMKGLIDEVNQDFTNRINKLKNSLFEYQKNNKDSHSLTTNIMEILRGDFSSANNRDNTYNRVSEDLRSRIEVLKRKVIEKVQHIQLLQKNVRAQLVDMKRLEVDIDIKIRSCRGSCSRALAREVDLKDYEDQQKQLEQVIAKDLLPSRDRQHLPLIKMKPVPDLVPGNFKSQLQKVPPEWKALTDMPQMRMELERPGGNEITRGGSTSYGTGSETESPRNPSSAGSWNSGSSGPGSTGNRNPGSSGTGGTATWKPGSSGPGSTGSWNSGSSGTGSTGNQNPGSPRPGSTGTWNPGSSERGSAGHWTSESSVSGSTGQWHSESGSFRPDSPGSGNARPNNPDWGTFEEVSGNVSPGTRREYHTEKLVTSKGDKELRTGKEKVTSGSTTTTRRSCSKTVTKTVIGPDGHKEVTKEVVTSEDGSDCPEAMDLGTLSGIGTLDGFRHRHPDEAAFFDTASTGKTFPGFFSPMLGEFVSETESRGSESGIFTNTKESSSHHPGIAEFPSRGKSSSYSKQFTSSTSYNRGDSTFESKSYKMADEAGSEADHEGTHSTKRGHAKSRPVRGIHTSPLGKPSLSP
T1 sequence (P02675 45-491 limits assumed): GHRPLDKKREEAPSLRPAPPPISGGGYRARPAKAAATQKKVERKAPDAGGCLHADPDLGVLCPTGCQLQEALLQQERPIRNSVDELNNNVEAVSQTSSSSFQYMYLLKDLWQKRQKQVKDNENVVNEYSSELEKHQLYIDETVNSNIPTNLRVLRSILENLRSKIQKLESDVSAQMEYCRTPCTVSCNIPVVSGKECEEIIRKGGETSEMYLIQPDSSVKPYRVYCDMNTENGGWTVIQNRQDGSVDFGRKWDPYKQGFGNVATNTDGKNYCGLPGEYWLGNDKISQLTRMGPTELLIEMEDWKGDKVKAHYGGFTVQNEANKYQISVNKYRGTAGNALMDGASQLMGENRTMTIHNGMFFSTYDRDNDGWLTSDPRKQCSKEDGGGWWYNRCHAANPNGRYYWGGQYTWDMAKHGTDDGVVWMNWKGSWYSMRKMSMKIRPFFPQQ
T1 sequence (P02679 27-437 isoform P02679-2 limits assumed): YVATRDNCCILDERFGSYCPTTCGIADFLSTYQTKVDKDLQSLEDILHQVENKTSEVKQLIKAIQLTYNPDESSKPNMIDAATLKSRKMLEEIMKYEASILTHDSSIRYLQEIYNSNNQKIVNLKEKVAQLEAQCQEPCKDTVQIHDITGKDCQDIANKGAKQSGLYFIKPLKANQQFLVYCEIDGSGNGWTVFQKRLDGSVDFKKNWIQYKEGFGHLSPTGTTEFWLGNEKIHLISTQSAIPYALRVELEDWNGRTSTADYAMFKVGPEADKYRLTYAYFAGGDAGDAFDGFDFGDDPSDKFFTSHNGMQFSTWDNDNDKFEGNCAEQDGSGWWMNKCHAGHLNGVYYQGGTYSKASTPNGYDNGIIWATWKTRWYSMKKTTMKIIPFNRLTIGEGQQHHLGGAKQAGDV
Assay: Transmission electron microscopy of fibrin gel cross sections
Details: TEM, 0.12% w/v dye
Method: Both scanning electron microscopy (SEM) and transmission electron microscopy (TEM) were performed to investigate the effect of the chemical additives on fibril formation microstructure. Gels were made with PBS, TB, or EB as described elsewhere (see, e.g., Gandhi et al., 2018 Acta Biomater., 67:134-46) with the following modifications. Briefly, a mixture of 40 mg/mL fibrinogen, 33 U/mL thrombin, and 0.12% w/v dye final concentrations was plated into a custom acetal mold to create the 300 μm sheet. After a 2 hour incubation at 37° C., the gels were hydrated in PBS for a minimum of 15 minutes.
The gels were then fixed overnight in 2.5% paraformaldehyde and 1% glutaraldehyde in 0.1 M phosphate buffer pH 7 containing 1.0 mM MgCl2 and 0.13 mM CaCl2. After fixation, gels were processed for scanning electron microscopy (SEM). Samples for TEM were processed by initially dehydrating the gels, embedding into plastic resin, and sectioned at a thickness of 100 nm. SEM imaging was performed using a Hitachi S-4700 (Hitachi High Technologies; Schaumburg, IL) microscope. Sections processed for TEM were imaged used a JEOL 1400 microscope (JEOL; Peabody, MA).
TEM was then performed to visualize the cross section of the fibrin gels. […] The PBS fibrin gel appears to have larger mesh spaces, with a large range of fibril diameters and orientation. […]

Row | Compound | largest fibril diameters
1 | Cc1cc(-c2ccc(/N=N/c3ccc4c(S(=O)(=O)O)cc(S(=O)(=O)O)c(N)c4c3O)c(C)c2)ccc1/N=N/c1ccc2c(S(=O)(=O)O)cc(S(=O)(=O)O)c(N)c2c1O [EB, Evans Blue] | 40-60 nm
2 | Cc1cc(-c2ccc(/N=N/c3c(S(=O)(=O)O)cc4cc(S(=O)(=O)O)cc(N)c4c3O)c(C)c2)ccc1/N=N/c1c(S(=O)(=O)O)cc2cc(S(=O)(=O)O)cc(N)c2c1O [TB, Trypan Blue] | 50-75 nm
